Eight molecules from patent US20230312601A1, “THIAZOLO[5,4-B]PYRIDINE MALT-1 INHIBITORS” (AbbVie Inc., priority 2022, published 2023) can be followed below.

The subject of one series is OCI-LY3 IL6. The series is described as follows: MALT-1 Cell IL-6 AlphaLISA Assay. The conditions noted are these: Homo sapiens; OCI-LY3 cells, 48 hours incubation; read-out: OCI-LY3 IL6 48 hour Inhibition EC50. The series is classed as cell-based. As for the experimental part:
The following MALT-1 Cell Interleukin-6 (IL-6) AlphaLISA assay was conducted using a Perkin Elmer® IL-6 AlphaLISA® detection kit (PE AL223). The IL-6 detection assay is a homogeneous immunoassay that detects human IL-6 present in the cell culture medium in the MALT-1 dependent human ABC-DLBCL cell line, OCI-LY3. Compounds were pre-dispensed into Black 384w microtiter plates (Greiner, 781090) from 30 μM to 1.5 nM. Viable OCI-LY3 cells were then seeded on top of compounds at a seeding density of 50,000 cells/mL. Plates were then placed into 37° C. incubators for 48 hours. After 48 hours incubation, 2 μL of cell medium from each well was transferred into white ProxiPlates™ (PE 6008289). A fresh mix of AlphaLISA Acceptor beads (10 μg/mL) and Biotinylated IL-6 Antibody (1 nM) was made in AlphaLISA Immunoassay buffer and added to all wells (4 μL). The plates were incubated for 60 minutes at room temperature. Streptavidin donor beads (40 μg/mL) were prepared using the assay buffer and added to all wells (5 The plates were incubated for 30 minutes at room temperature and read using PE EnVision® reader. Results are shown in Table 3.

In another series the test system is CYP 3A4 mRNA. The series is described as follows: CYP3A4 Induction Assay (qPCR, human hepatocytes). The class given is in vitro ADME. The conditions noted are these: 10 μM compound; for CYP3A4 % of positive control (%): relative to rifampicin 10 μM. As for the experimental part: (§1) CYP induction by compounds of the Examples was evaluated in vitro by determining the expression levels of CYP 3A4 mRNA using the qPCR (quantitative polymerase chain reaction) assay. On day one, cryopreserved human hepatocytes were thawed in prewarmed (37° C.) thawing medium (cryopreserved hepatocyte recovery medium, Gibco™ CM 7000; Thermo Fisher Scientific), centrifuged (1000 g for 10 minutes) and resuspended in plating medium (Gibco™ CM3000—Williams Medium E supplemented with hepatocytes plating supplement pak-serum containing; Thermo Fisher Scientific). Cells were counted by trypan blue exclusion using a hemocytometer and adjusted to a cell density of […]. Thereafter, […] of cell suspension was aliquoted per well in a 96-well plate, resulting in 60,000 cells/well. Plates were shaken in the north-south and east-west direction during plating. Plated cells were incubated at 37° C/5% CO2 in a humidified cell culture incubator for 4-6 hours. During this time, incubation medium (Gibco™ CM4000, cell maintenance supplement pack; Thermo Fisher Scientific) was mixed with Gibco™ Geltrex™ (Thermo Fischer Scientific) at the appropriate GeltrexTM protein concentration. Following recovery, medium was removed from cells and replaced with freshly prepared incubation medium. Cells were incubated overnight in a cell culture incubator (37° C./5% CO2).
(§2) The next day the incubation medium was prepared by combining the hepatocyte maintenance supplement pack with Williams Medium E. The medium was warmed to 37° C. 1000× dimethyl sulfoxide compound stocks of the compounds of the Examples were prepared to the desired concentrations. 10 mM compound stocks in dimethyl sulfoxide were diluted (1 μL to 1 mL CM4000; final concentration=10 μM). Overlay medium was aspirated and […] dose solution added to the desired labeled 96 well plate. Cells were then dosed with compound (10 μM) and prototypical induces at the targeted concentrations either 50 i.tM for omeprazole (Sigma 0104/lotBCBF-2161V) or 10 i.tM for rifampicin (Sigma R3501/lot 011M1159V). A negative control, probenecid, was dosed at 10 i.tM (Sigma P8761/lot 013K0148).
(§3) On day 3, RNA isolation was performed. All surfaces were cleaned using RNase RNAy. Total RNA was isolated using MagMAX Express 96 RNA Isolation System (Life Technologies, AM1830). Briefly, hepatocytes were washed once with 1X PBS (phosphate buffered saline). 145 μL of RNA Lysis Buffer was added to each well and each well was mixed by pipetting several times. Lysate was then transferred to a well of a 96 well Binding Plate. Samples were then mixed with 20 μL magnetic beads coming from the kit. RNA bound to beads was then captured by the magnetic tip manifold and beads were washed with the wash solution. Samples were treated with TURBOTmDNase. After TURBOTmDNase treatment, RNA was rebound to beads and washed with the provided wash buffer an additional two times. Beads are then dried, and RNA was eluted with 50 μL elution buffer. The eluted mRNA was transferred from the wells to RNase-free sealable microtiter plates and stored at -80° C. until use.
(§4) Following mRNA isolation, reverse transcription (RT) reactions were performed using TaqmanTm Reverse Transcription Reagents (ThermoFisher Scientific). RT master mix was prepared by mixing 2.5 μL 10× RT buffer, 5.5 μL 25 mM MgCl2, 5μL deoxyNTP mixture, 1.25 50 mM random hexamers, 0.5 μL 2× RNAse inhibitor, 0.625 μL multiscript RTase (50U/μL) and 0.625 μL water. An aliquot of RT mix (16 μL) and an aliquot of mRNA sample (9 μL) was added to each well of a 96-well plate. The SimpliAmpTM Thermal cycler PCR System VIIA7 from Applied Biosystems was used for reverse transcription under the following conditions: segment 1: 25° C. for 10 minutes; segment 2: 45° C. for 45 minutes; segment 3: 95° C. for 5 minutes; and segment 4: 4° C. hold; with 1 cycle for each segment. […]

For the next series, the system named is CYP3A4 mRNA. The series is described as follows: CYP3A4 Induction Assay (qPCR, human hepatocytes). The series is classed as in vitro ADME. The conditions noted are these: cryopreserved human hepatocytes (plated), 10 μM compound, mRNA fold over vehicle (0.1% DMSO). As for the experimental part: as §1, §2, §3, §4
The next series addresses human MALT-1 protein (Homo sapiens (Human), UniProt Q9UDY8). The series is described as follows: MALT-1 Biochemical Assay (Quench-FRET enzyme assay). The conditions noted are these: human MALT-1 6 nM, substrate 2 μM, 40 min preincubation. An excerpt:
A Quenched Fluorescence Resonance Energy Transfer (Quench-FRET) enzyme assay was used to test the ability of exemplary MALT-1 inhibitors Example 1 to Example 39 to inhibit the cleavage of a MALT1 specific quenched fluorescent substrate of sequence [TAMRA-PEG2-Leu-Val-Ser-Arg-Gly-Ala-Ala-Ser-PEG2-K(QSY7) by human MALT-1 protein; where TAMRA is 6-carboxytetramethylrhodamine, PEG2 is 2-(2-(2-aminoethoxy)ethoxyamide linker, QSY7 is a non-fluorescent quenching dye (Thermo-Fisher catalog #Q10193). The assay was performed by pre-dispensing compounds into 384 well Proxiplates™ (PE 6008289). Human MALT-1 (6 nM) was prepared using the assay buffer (25 mM HEPES pH 7.5, 1 mM ethylenediaminetetraacetic acid, 0.8 M sodium citrate, 0.005% Bovine serum albumin (BSA), 2 mM dithiothreitol (DTT)) and added to the compound plates. The plates were incubated 40 minutes at room temperature. The reaction was carried out by adding the substrate (2 μM) to the plates and incubating for 60 minutes at room temperature. A fluorescence readout was then measured using a PE EnVision® reader (Ex.535/Em.590). […] EC50 is defined as the half maximal effective concentration of compound to inhibit MALT-1 protease activity.

In the next series the test system is male Sprague-Dawley rats. Put plainly: Cardiovascular Assay in anesthetized rats. The conditions noted are these: rat; for HR (%) / MAP (%) / dP/dt@50 (%): change from vehicle; for Drug (μg/mL SEM): plasma at end of infusion. The series is classed as in vivo. The protocol: The following cardiovascular assay was conducted using male Sprague-Dawley rats that were anesthetized with Inactin (thiobutabarbital), instrumented (catheterized both femoral artery and vein; catheterize left ventricular) and allowed to stabilize. Following a 30-minute baseline period, each compound was infused at low, medium, and high doses/30 minutes. Plasma samples were taken at the end of each dose infusion. If, at any point, the mean arterial pressure (MAP) of an animal decreased below 70 mmHg, the infusion was immediately stopped, a final blood sample was taken, and hemodynamic data for that animal was removed from the group average for all subsequent time points. A 15% change from vehicle for MAP or heart rate (HR), respectively, is considered biologically relevant. A 20% change from vehicle for dP/dt@50 is considered biologically relevant.

Sequence of human MALT-1 protein (Q9UDY8 whole entry): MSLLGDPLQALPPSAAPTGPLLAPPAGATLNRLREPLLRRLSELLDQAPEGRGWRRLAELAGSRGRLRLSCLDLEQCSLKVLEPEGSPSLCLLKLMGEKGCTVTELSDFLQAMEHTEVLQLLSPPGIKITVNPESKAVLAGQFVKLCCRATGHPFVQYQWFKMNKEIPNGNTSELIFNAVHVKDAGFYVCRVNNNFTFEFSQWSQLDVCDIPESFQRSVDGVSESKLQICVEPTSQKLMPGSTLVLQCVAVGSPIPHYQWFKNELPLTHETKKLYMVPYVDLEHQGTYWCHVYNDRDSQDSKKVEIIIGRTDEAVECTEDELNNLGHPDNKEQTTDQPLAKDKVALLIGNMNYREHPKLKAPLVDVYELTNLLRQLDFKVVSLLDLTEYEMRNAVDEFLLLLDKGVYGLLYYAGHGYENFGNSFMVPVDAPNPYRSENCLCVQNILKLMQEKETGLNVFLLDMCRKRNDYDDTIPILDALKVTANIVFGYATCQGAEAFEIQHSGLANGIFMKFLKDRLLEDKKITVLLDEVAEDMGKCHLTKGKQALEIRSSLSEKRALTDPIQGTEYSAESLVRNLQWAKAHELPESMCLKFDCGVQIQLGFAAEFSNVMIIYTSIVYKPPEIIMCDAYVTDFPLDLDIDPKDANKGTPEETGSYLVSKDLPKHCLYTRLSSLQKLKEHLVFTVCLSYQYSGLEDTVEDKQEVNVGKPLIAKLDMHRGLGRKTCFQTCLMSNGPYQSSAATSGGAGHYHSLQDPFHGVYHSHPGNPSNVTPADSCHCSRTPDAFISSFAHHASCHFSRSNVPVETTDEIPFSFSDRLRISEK

Turning to `CO[C@H](C)c1c(Nc2ccc([C@@H](C(F)F)N(C)C(=O)C3CCS(=O)(=O)CC3)cc2)cnc2sc(C)nc12` [Example 12, N-{(1S)-2,2-difluoro-1-[4-({7-[(1R)-1-methoxyethyl]-2-methyl[1,3]thiazolo[5,4-b]pyridin-6-yl}amino)phenyl]ethyl}-N-methyl-1,1-dioxo-1λ^6-thiane-4-carboxamide], the 50% effective concentration (EC50) in the series on OCI-LY3 IL6 came out at 200 nM; at human MALT-1 protein it was 61 nM. For the same molecule, in the series with CYP 3A4 mRNA, the “CYP3A4 % of positive control (%)” value is on record as “(31) %”. In the series with CYP3A4 mRNA, this molecule gave a fold induction at 1 day, 10 µM of 3.65.

With `CO[C@H](c1c(Nc2ccc([C@H](N(C)C(=O)C3CCS(=O)(=O)CC3)C(F)(F)F)cc2)cnc2sc(C)nc12)C(F)(F)F` [Example 2, N-methyl-1,1-dioxo-N-{(1S)-2,2,2-trifluoro-1-[4-({2-methyl-7-[(1R)-2,2,2-trifluoro-1-methoxyethyl][1,3]thiazolo[5,4-b]pyridin-6-yl}amino)phenyl]ethyl}-1λ^6-thiane-4-carboxamide], the results for the EC50 in the series with OCI-LY3 IL6 and at human MALT-1 protein were 110 nM and 190 nM, respectively. Besides, the “CYP3A4 % of positive control (%)” value with CYP 3A4 mRNA was “(2.19) %”. Further, the fold induction at 1 day, 10 µM in the series with CYP3A4 mRNA was 1.13.

In the case of `CO[C@@H](C)c1c(Nc2ccc([C@H](N(C)C(=O)C3CCN(C(=O)[C@H](C)O)CC3)C(F)(F)F)cc2)cnc2sc(C)nc12` [Example 26, 1-[(2S)-2-hydroxypropanoyl]-N-methyl-N-{(1S)-2,2,2-trifluoro-1-[4-({7-[(1S)-1-methoxyethyl]-2-methyl[1,3]thiazolo [5,4-b]pyridin-6-yl}amino)phenyl]ethyl}piperidine-4-c arboxamide], the EC50 is 1150 nM in the series with OCI-LY3 IL6 and 393 nM on human MALT-1 protein. Besides, the “CYP3A4 % of positive control (%)” value in the series with CYP 3A4 mRNA is “(2.57) %”. This molecule also registered a fold induction at 1 day, 10 µM in the series on CYP3A4 mRNA of 1.17.

Turning to `CO[C@H](c1c(Nc2ccc([C@@H](C(F)F)N(C)C(=O)C3CCN(C(=O)CO)CC3)cc2)cnc2sc(C)nc12)C(F)F` [Example 31, N-{(1S)-1-[4-({7-[(1R)-2,2-difluoro-1-methoxyethyl]-2-methyl[1,3]thiazolo[5,4-b]pyridin-6-yl}amino)phenyl]-2,2-difluoroethyl}-1-(hydroxyacetyl)-N-methylpiperidine-4-carboxamide], the values for the EC50 in the series with OCI-LY3 IL6 and on human MALT-1 protein were 440 nM and 82 nM, respectively. The “CYP3A4 % of positive control (%)” value in the series with CYP 3A4 mRNA is reported as “(4.87) %”. In the series on CYP3A4 mRNA, this molecule showed a fold induction at 1 day, 10 µM of 1.37.

Regarding `Cc1nc2c(C(C)C(F)F)c(Nc3ccc([C@H](N(C)C(=O)C4CCS(=O)(=O)CC4)C(F)(F)F)cc3)cnc2s1` (stereo partly drawn) [Example 16, N-R[(1S)-1-(4-{ [7-(1,1-difluoropropan-2-yl)-2-methyl[1,3]thiazolo[5,4-b]pyridin-6-yl]amino}phenyl)-2,2,2-trifluoroethyl]-N-methyl-1,1-dioxo-1λ^6-thiane-4-carboxamide], the figures for the half-maximal effective concentration (EC50) in the series with OCI-LY3 IL6 and at human MALT-1 protein were 470 nM and 106 nM, respectively.

On to `CO[C@@H](C)c1c(Nc2ccc([C@H](N(C)C(=O)C3CCS(=O)(=O)CC3)C(F)(F)F)cc2)cnc2cc(Cl)nn12` [Comparative Example A, N-{(1S)-1-[4-({2-chloro-7-[(1 S)-1-methoxyethyl]pyrazolo [1,5-a]pyrimidin-6-yl}amino)phenyl]-2,2,2-trifluoroethyl}-N-methyl-1,1-dioxo-1λ^6-thiane-4-carboxamide, reference compound], for which, in the series with male Sprague-Dawley rats (dose 3 mg/kg), the “HR (%)” value is listed as −7%, the “MAP (%)” value was −10%, the “dP/dt@50 (%)” value is −4% and the “Drug (μg/mL SEM)” value amounted to 1.45 ± 0.06 µg/mL. In the series on male Sprague-Dawley rats (dose 10 mg/kg), the “HR (%)” value is listed as −11%, the “MAP (%)” value is recorded as −14%, the “dP/dt@50 (%)” value was −7% and the “Drug (μg/mL SEM)” value stood at 5.15 ± 0.32 µg/mL. In addition, in the series with male Sprague-Dawley rats (dose 30 mg/kg), the “HR (%)” value was −18%, the “MAP (%)” value is listed as −22%, the “dP/dt@50 (%)” value is listed as −6% and the “Drug (μg/mL SEM)” value turned out to be 12.91 ± 1.71 µg/mL.

As to `CO[C@@H](C)c1c(NC(=O)Nc2cnc(-n3nccn3)c(C(F)(F)F)c2)cnc2sc(C)nc12` [Comparative Example B, reference compound], in the series with CYP 3A4 mRNA (mRNA fold over vehicle (0.1% DMSO)), the “CYP3A4 Fold induction” value is recorded as 2.32. In addition, in the series on CYP 3A4 mRNA, the “CYP3A4 % of positive control (%)” value was “(25.3) %”.

Take `CO[C@H](c1c(Nc2ccc([C@H](N(C)C(=O)C3CCS(=O)(=O)CC3)C(F)(F)F)cc2F)cnc2sc(C)nc12)C(F)F` (single isomer, unassigned) [Example 17]: the EC50 in the series with OCI-LY3 IL6 is 580 nM; on human MALT-1 protein, 92 nM.
